Reference: patent publication US6503940B2, “Prodrugs for antimicrobial amidines” (The University of North Carolina at Chapel Hill, priority 1999, dated 2003)

Key:
[1] = system: Pneumocystis carinii; experiment: Anti-Pneumocystis carinii pneumonia activity in immunosuppressed rat model; format: in vivo
Protocol: (§1) In the examples which follow, melting points were recorded using a Thomas-Hoover (Uni-Melt) capillary melting point apparatus and were uncorrected. TLC analysis was carried out on silica gel 60 F254 pre-coated aluminum sheets (0.20 mm layer thickness) (E. Merck of Whitehouse Station, N.J.) and detected under UV light. IR spectra were recorded using Perkin-Elmer Model 337 spectrometer sold by Perkin-Elmer of Norwalk, Conn. ^1H and ^13C NMR spectra were recorded employing a Varian GX400 or a Varian Unityplus 300 spectrometer (both sold by Varian of Palo Alto, Calif.) and chemical shifts (δ) are in ppm relative to TMS as internal standard. Mass Spectra were recorded on a VG Analytical 70-SE spectrometer (Georgia Institute of Technology, Atlanta, Ga.). IR spectra were recorded using a Perkin-Elmer 2000 instrument. […] All chloroformates were purchased from Aldrich Chemical Co. of St. Louis, Mo. Other chemicals and solvents were purchased from either Aldrich or Fischer Scientific of Houston, Tex. […] See Baijic, M., et al., Heterocycl. Commun., 1996, 2, pp. 135-140; Das, B. P., J. Med. Chem. 1977, 20, pp. 531-536; and Boykin, D. W., et al., Bioorg. Med. Chem Lett., 1996, 6, pp. 3017-3020. Anti-Pneumocystis carinii pneumonia activity screening was carried out according to published methods. See Jones, S. K. et al., Antimicrob. Agents Chemother., 1990, 34, pp. 1026-1030; Hall, J. E., et al., Antimicrob. Agents Chemother., 1998, 42, pp. 666-674; and Tidwell, R. R., et al., J. Med. Chem., 1990, 33, pp. 1252-1257. Compounds were routinely tested orally at 33 μmol/kg/day and intravenously at 22 μmol/kg/day. Saline- and pentamidine treated groups of rats were included as negative and positive controls, respectively.

[2] = Toxicity observed in rats of the anti-PCP screening; details: rat
Protocol: as §1

[3] = system: Pneumocystis carinii; experiment: Anti-Pneumocystis carinii pneumonia activity in immunosuppressed rat model; format: in vivo; remark: listed apart in the source

| Molecule | Cysts/g of lung (% of control) ([1]; Oral @ 33.0 μmol/kg/day) | Cysts/g of lung (% of control) ([1]; iv @ 22.0 μmol/kg/day) | Toxicity ([2]; Oral @ 33.0 μmol/kg/day) | Toxicity ([2]; iv @ 22.0 μmol/kg/day) | other results |
| --- | --- | --- | --- | --- | --- |
| 2,5-bis[4-(N-2,2,2-trichloroethoxycarbonyl)amidinophenyl]furan [Compound 3] | 8.59 ± 9.14 % of control | 1.85 ± 1.79 % of control | 0 | 0 | – |
| [H]/N=C(\N)c1ccc(-c2ccc(-c3ccc(/C(N)=N/[H])cc3)o2)cc1 [Compound 1, 2,5-Bis(4-amidinophenyl)furan, reference compound] | – | – | – | – | Toxicity ([2]; Oral @ 39.8 μmol/kg/day): 0; Toxicity ([2]; iv @ 13.3 μmol/kg/day): 0; Cysts/g of lung (% of control) ([3]; Oral @ 39.8 μmol/kg/day): 44.52 ± 13.30 % of control; Cysts/g of lung (% of control) ([3]; iv @ 13.3 μmol/kg/day): 0.83 ± 0.36 % of control |
| COC(=O)NC(=N)c1ccc(-c2ccc(-c3ccc(C(=N)NC(=O)OC)cc3)o2)cc1 [Compound 2, 2,5-Bis[4-(N-methoxycarbonyl)amidinophenyl]furan] | 49.68 ± 20.50 % of control | 6.91 ± 6.01 % of control | 0 | 0 | – |
| CCSC(=O)N=C(N)c1ccc(-c2ccc(-c3ccc(C(N)=NC(=O)SCC)cc3)o2)cc1 [Compound 4, 2,5-bis[4-(N-thioethylcarbonyl)amidinophenyl]furan] | 19.52 ± 14.22 % of control | 83.01 ± 43.65 % of control | 0 | 0 | – |
| NC(=NC(=O)OCc1ccccc1)c1ccc(-c2ccc(-c3ccc(C(N)=NC(=O)OCc4ccccc4)cc3)o2)cc1 [Compound 5, 2,5-bis[4-(N-benzyloxycarbonyl)amidinophenyl]furan] | 18.09 ± 9.16 % of control | – | – | – | Cysts/g of lung (% of control) ([3]; iv @ 11.0 μmol/kg/day): 0.03 ± 0.02 % of control |
| Cc1oc(=O)oc1COC(=O)N=C(N)c1ccc(-c2ccc(-c3ccc(C(N)=NC(=O)OCc4oc(=O)oc4C)cc3)o2)cc1 [Compound 6, 2,5-bis{4-[N-(5-methyl-2-oxo-1,3-dioxol-4-ene-1-yl)methoxycarbonyl]amidinophenyl}furan] | 18.73 ± 11.87 % of control | 0.02 ± 0.01 % of control | 0 | 0 | – |
| NC(=NC(=O)Oc1ccccc1)c1ccc(-c2ccc(-c3ccc(C(N)=NC(=O)Oc4ccccc4)cc3)o2)cc1 [Compound 7, 2,5-Bis[4-(N-phenoxycarbonyl)amidinophenyl]furan] | 5.70 ± 5.15 % of control | 3.61 ± 1.80 % of control | 0 | 0 | – |
| NC(=NC(=O)Oc1ccc(F)cc1)c1ccc(-c2ccc(-c3ccc(C(N)=NC(=O)Oc4ccc(F)cc4)cc3)o2)cc1 [Compound 8, 2,5-bis[4-(N-(4-fluoro)phenoxycarbonyl)amidinophenyl]furan] | 2.21 ± 0.33 % of control | 0.02 ± 0.01 % of control | 0 | 0 | – |
| COc1ccc(OC(=O)N=C(N)c2ccc(-c3ccc(-c4ccc(C(N)=NC(=O)Oc5ccc(OC)cc5)cc4)o3)cc2)cc1 [Compound 9, 2,5-bis[4-(N-(4-methoxy)phenoxycarbonyl)amidinophenyl]furan] | 2.10 ± 2.08 % of control | 0.02 ± 0.01 % of control | 0 | 0 | – |
| CC(=O)OC(C)OC(=O)NC(=N)c1ccc(-c2ccc(-c3ccc(C(=N)NC(=O)OC(C)OC(C)=O)cc3)o2)cc1 (stereo not drawn) [Compound 10, 2,5-bis[4(1-Acetoxyethoxycarbonyl)amidinophenyl]furan] | 57.16 ± 10.19 % of control | – | 0 | – | Cysts/g of lung (% of control) ([3]; iv @ 11.0 μmol/kg/day): 1.21 ± 1.02 % of control |
| CCOC(=O)ON=C(N)c1ccc(-c2ccc(-c3ccc(C(N)=NOC(=O)OCC)cc3)o2)cc1 [Compound 11, 2,5-bis[4(N-ethoxycarbonyloxy)amidinophenyl]furan] | 96.90 ± 48.48 % of control | – | 0 | – | Toxicity ([2]; iv @ 34.7 μmol/kg/day): 0; Cysts/g of lung (% of control) ([3]; iv @ 34.7 μmol/kg/day): 1.66 ± 0.58 % of control |
| N=C(N)c1ccc(OCCCCCOc2ccc(C(=N)N)cc2)cc1 [Pentamidine, 1,5-bis(4-amidinophenoxy)pentane, reference compound] | – | 3.06 ± 0.90 % of control | – | – | – |
